We go through one compound from patent US20250163056A1, “NONMUSCLE MYOSIN II INHIBITORS” (The University of Florida Research Foundation, Inc., priority 2018, published 2025).

In brackets after ≈: the same amount, converted by molar mass.

In series [1] the test system is hiPS cardiomyocytes (Cor.4U CMs). Kind of series: Cardiac safety assay 1: beating parameters of cardiomyocytes (xCELLigence RTCA Cardio). Conditions: hiPS-derived cardiomyocytes. In kind it is cell-based, human. As to the method:
The spontaneous contractions of cardiomyocytes (CMs) is measured label-free in real time using the ACEA xCELLigence RTCA Cardio instrument. All measurements are performed at 37° C. in a cell culture incubator, allowing for spontaneous beating of CMs at physiological conditions. Cor.4U CMs are seeded at 3×10^4 cells/well in 180 μl/well maintenance medium. Prior to seeding, a background impedance measurement (plate plus medium) is performed. The contraction of CMs involves cyclic modulation of cell morphology and adhesion inducing a delta change in impedance. From the cyclic changes in impedance a beating frequency, amplitude and effects on beating pattern can be calculated. Time point “0” (baseline) is recorded 10× for 20 seconds at 1 minute intervals. Thereafter, compounds and control (0.1% DMSO) are added to the wells and effects are measured 30 minutes later. Vehicle control is 0.1% DMSO and positive control is 100 nM isoproterenol. Compounds are tested at 0.1, 0.3, 1.0 and 3.0 uM. Data is collected at 5, 10, 15, 20 and 30 minutes, and 1, 4, 6, 12 and 24 hours post-incubation.

For a further series, the system named is Male Sprague-Dawley rats. The series is described as follows: Cardiac safety assay 2: in vivo echocardiography with IV drug infusion. Further details: species or system rat. The source says:
The first (results shown in Table 2) assesses the effects of our compounds on the contractility of cardiomyocytes. As the cardiac Ki increases, the contractility effects dramatically decrease. However, unlike in the adult heart, the hiPS cardiomyocytes used in this assay express NMII, which likely accounts for the residual contractility effects seen at the highest dose tested. For that reason, we moved to in vivo echocardiograms, which assess contractility in live animals (FIG. 7). […] Accordingly, the compounds of the invention and compounds used for practice of methods of the invention can produce less cardiac toxicity than does blebbistatin.
Male Sprague-Dawley rats are acclimated for approximately 1 week prior to use. Rats are lightly anesthetized using isoflurane and an intravenous catheter is placed for dosing purposes. Baseline 2-D echocardiograms are collected (standard SAX B-mode and M-mode at the level of the papillary muscle). Each rat receives a total of 3 IV treatments. Vehicle (10% DMSO, 10% Tween 80 and 80% water) is first administered, followed 10 minutes later by two subsequent infusions, separated by 10 minutes. Infusions of the positive control, Blebbistatin, are delivered at 0.5 mg/kg IV. […] Measurements including fractional shortening, ejection fraction, heart rate and cardiac output are calculated.

Series [2] can be described thus: Brain and plasma distribution after IP dosing. As to conditions: 10 mg/kg. Format: in vivo, mice. As for the experimental part: FIG. 4: Brain and plasma distribution of blebbistatin after IP dosing at 10 mg/kg in mice.
(§1) The potential for systemic NMII inhibition to selectively target METH-associated memories in the way that intra-AMY administration does was also investigated. […] IP administered Blebbistatin also disrupts reconsolidation of memories for cocaine, nicotine and mephedrone, a result with additional potential therapeutic relevance in treating relapse^75-76. In addition, the BLC spine density increase that accompanies a METH-associated memory is reversed by Blebbistatin (FIG. 3C), without altering the spine density increase associated with a fear memory (FIG. 3D)^65, 74.

Another series concerns METH-associated memory. Kind of series: METH-associated memory, conditioned place preference (CPP) assay. Format: in vivo, mice and rats. Conditions: single intra-BLC or IP administration (IP 10 mg/kg).
From the text: In 2013, we published the finding that depolymerization of actin in the AMY disrupts the storage of METH-associated memories in a selective, retrieval-independent manner^65. Because of the limited clinical potential of actin depolymerizing agents, we turned to NMII, a molecular motor we previously found to be a key regulator of memory, synaptic plasticity (long-term potentiation [LTP]) and actin polymerization in dendritic spines^59 63. Through a series of experiments in a recently published studies, we detailed NMII's potential as a therapeutic target for SUD relapse^52,74-76.
as §1

The test system of a further series is METH seeking. Kind of series: Context-induced reinstatement of METH seeking (animal model of relapse). Format: in vivo. As to conditions: single intra-BLC administration.
In a further series the test system is fear memory. The series is described as follows: Auditory fear memory after systemic NMII inhibition. As to conditions: IP administered. Format: in vivo.
From the text: (§2) FIG. 3(A,B,C,D): Systemic NMII inhibition selectively targets the storage of (A) a METH-associated memory, (B) having no effect on an auditory fear memory. Similarly, spine density associated with a METH-associated memory (C), but not a fear memory (D), is reduced.
as §1

The test system of the next series is BLC spine density. Kind of series: BLC spine density associated with memory. As to conditions: in vivo.
From the text: as §2, §1

Series [3] relates to polydrug-associated memories. The series is described as follows: Polydrug-associated memory CPP (METH/NIC, METH/MOR). Format: in vivo, mice. Conditions: Test 1 and Test 2, drugs on alternating days. As to the method:
FIG. 6(A,B,C,D,E): Nonmuscle myosin II inhibition disrupts polydrug-associated memories when the drugs are administered on alternating days (A) Schematic of the experimental design. […] METH/NIC: Veh n=10; METH/NIC: Blebb n=10; METH/MOR: Veh n=19; METH/MOR: Blebb n=19; * p<0.05, ** p<0.01, *** p<0.001. Error bars represent±s.e.m.
The vast majority of individuals with substance use disorder are polydrug users. For example, most METH users also smoke. We recently made an unexpected discovery with direct relevance to polydrug use^76. When animals are treated with both METH and a drug that is impervious to Blebb on its own (nicotine or morphine), either concurrently or on alternating days, the nicotine and morphine memories become susceptible to immediate disruption by Blebb, akin to the effect on METH alone memories (FIG. 6). Thus, memories for previously impervious drugs of abuse become susceptible to NMII inhibition when METH associations are also formed. Importantly, this occurs when associative training is performed with METH and the other drug of abuse being administered simultaneously or separately, on different days. We are currently expanding our analysis to other commonly abused drugs, including other opioids, such as heroin, alcohol, cocaine and synthetic cathinones.

The nature of series [4]: Solubility (quoted in the Table 2 note). Format: physicochemical.
A further series concerns various myosin IIs. As to conditions: reported in the literature; read-out: biochemical IC50 values in various myosin IIs; cited from earlier work.
Series [5] can be described thus: Photostability, percentage remaining undegraded under illumination or in the dark.

As usually defined, the solubility is the dissolved amount per volume that the medium holds. The term IC50 denotes the concentration that gives 50% inhibition. As to `Cc1ccc2c(c1)C(=O)[C@]1(O)CCN(c3ccccc3)C1=N2` [Blebbistatin, reference compound], the “Qualitative impact on contractility (e.g. Full = Complete inhibition of contraction)” value in series [1] (0.1 uM) is on record as “No”; in series [1] (0.3 uM), “Partial”; in series [1] (1.0 uM), 1.0u M: Full 3.0 uM: Full; in series [1] (3.0 uM), 1.0u M: Full 3.0 uM: Full. Also, the “Change in amplitude at 1 uM @ 15 min” value in series [1] (1 uM, 15 min) was −57.9 ± 12.8%. In the series on Male Sprague-Dawley rats, the “contractility effects in in vivo echocardiograms” value is on record as “substantial contractility effects”. Further, the brain levels in series [2] turned out to be 90 µM. The METH-associated memory entry is “disrupt a METH-associated memory” in the series with METH-associated memory (listed as Blebb) and “disrupted” with METH-associated memory (listed as blebbistatin). For the same compound, in the series on METH seeking, the “context-induced reinstatement of METH seeking” value is given as “prevents context-induced reinstatement of METH seeking”. The “effect on a fear memory” value with fear memory is listed as “no similarly immediate effect on a fear memory”. In addition, the “BLC spine density increase accompanying a METH-associated memory” value with BLC spine density was “reversed”. The “METH/MOR CPP” value in series [3] is given as “did not demonstrate a significant METH/MOR CPP during either test”. The “METH/NIC CPP” value in series [3] was “did not demonstrate a significant METH/NIC CPP during either test”. The compound further yielded a solubility in series [4] of 9.3 µM (≈ 2.72 µg/mL). The IC50 in the series on various myosin IIs is 1.8 to 9 µM. The “Photostability 4 hours” value in series [5] (percentage remaining undegraded after 4 hours illumination) was 82.9%. Also, the “Photostability 24 hours” value in series [5] (percentage remaining undegraded after 24 hours illumination) is reported as 9.3%. The “Photostability Dark (24 h)” value in series [5] (percentage remaining undegraded in the dark, 24 h) was >99%.
